PubChem BioAssay (NCI)
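Cultured in 96-well plates, cells were exposed to test compound for 48 hours across five concentrations. GI50 is the concentration that inhibits growth by half. TGI marks complete inhibition of growth.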

Columns and labels:
Experiment in all cases: NCI-60 cell line screen, 48 h
CAKI-1 renal = tested on: CAKI-1 renal
MOLT-4 leukemia = tested on: MOLT-4 leukemia
NCI-H23 lung = tested on: NCI-H23 lung
OVCAR-5 ovarian = tested on: OVCAR-5 ovarian
OVCAR-8 ovarian = tested on: OVCAR-8 ovarian
SF-268 CNS = tested on: SF-268 CNS
U251 CNS = tested on: U251 CNS
A498 renal = tested on: A498 renal
OVCAR-3 ovarian = tested on: OVCAR-3 ovarian
SK-MEL-28 melanoma = tested on: SK-MEL-28 melanoma

Row | SMILES | TGI (CAKI-1 renal) [µM] | TGI (MOLT-4 leukemia) [µM] | TGI (NCI-H23 lung) [µM] | TGI (OVCAR-5 ovarian) [µM] | TGI (OVCAR-8 ovarian) [µM] | TGI (SF-268 CNS) [µM] | TGI (U251 CNS) [µM] | TGI (A498 renal) [µM] | TGI (OVCAR-3 ovarian) [µM] | TGI (SK-MEL-28 melanoma) [µM] | GI50 (A498 renal) [µM] | GI50 (CAKI-1 renal) [µM] | GI50 (MOLT-4 leukemia) [µM] | GI50 (NCI-H23 lung) [µM] | GI50 (OVCAR-3 ovarian) [µM] | GI50 (OVCAR-5 ovarian) [µM] | GI50 (OVCAR-8 ovarian) [µM] | GI50 (SF-268 CNS) [µM] | GI50 (SK-MEL-28 melanoma) [µM] | GI50 (U251 CNS) [µM]
1 | COC(CN(C)C(=O)C(C)NC(=O)c1ccccc1)OC (centres undefined) | > 100 | > 100 | > 100 | > 100 | > 100 | > 100 | > 100 | – | – | – | – | – | – | – | – | – | – | – | – | –
2 | Cc1ccc2c(c1)SSSSS2 | 36 | > 100 | 43 | 46.9 | 53.7 | 60.5 | > 100 | 35.1 | 40.5 | 65.4 | – | – | – | – | – | – | – | – | – | –
3 | CCc1ccc(-c2nnc(COc3ccc(-c4nc5ccc(C)cc5[nH]4)cc3OC)o2)cc1 | 4.92 | > 100 | 54.4 | > 100 | > 100 | > 100 | 5.79 | 4.72 | 4.49 | 6.66 | 1.97 | 2.07 | 3.26 | 4.52 | 2.23 | 5.21 | 5.08 | 4.47 | 2.36 | 2.32
4 | CC1=C(/C=C/C(C)=C/C=C/C(C)=C/C(=O)OCC2OC(n3cc(F)c(=O)[nH]c3=O)CC2OC(=O)/C=C(C)/C=C/C=C(C)/C=C/C2=C(C)CCCC2(C)C)C(C)(C)CCC1 (centres undefined) | > 100 | > 100 | > 90 | > 67.6 | > 66.7 | > 85.3 | > 54.1 | – | > 39.5 | > 77.6 | – | – | – | – | – | – | – | – | – | –
5 | c1ccc(N=C2c3ccccc3CN2c2ccccc2)cc1 | > 100 | > 100 | > 100 | – | > 100 | > 100 | > 100 | – | > 100 | > 100 | – | – | – | – | – | – | – | – | – | –
6 | CC1C(c2ccc(F)cc2)c2cc3c(cc2OC1N1CCCC1)OCO3 (centres undefined) | 58.4 | – | > 100 | > 100 | > 100 | > 100 | – | – | > 100 | > 100 | – | – | – | – | – | – | – | – | – | –
7 | Clc1ccc(N=C/C=C/Nc2ccc(Cl)cn2)nc1 | 25.1 | 19.4 | 32.8 | 30 | 23.3 | 30.6 | 20.7 | 34.7 | 26.6 | 32.9 | – | – | – | – | – | – | – | – | – | –
8 | CC(=O)/C(C=Nc1c(C)n(C)n(-c2ccccc2)c1=O)=C(/C)O | > 100 | > 100 | > 100 | > 100 | > 100 | – | > 100 | > 100 | > 100 | – | – | – | – | – | – | – | – | – | – | –
9 | CCOC(=O)/C(C#N)=C/c1ccc2c(-c3c(OCC)ccc4cc(/C=C(\C#N)C(=O)OCC)ccc34)c(OCC)ccc2c1 | > 100 | > 100 | > 100 | > 100 | > 100 | > 100 | > 100 | > 100 | > 100 | > 100 | – | – | – | – | – | – | – | – | – | –
10 | CC(C)(C)OC(=O)[N+](=N)C(=O)C1CCC(=O)N1C(=O)OCc1ccccc1 (centres undefined) | > 100 | > 100 | > 100 | > 100 | > 100 | > 100 | > 100 | – | > 100 | > 100 | – | – | – | – | – | – | – | – | – | –
11 | CC(=O)N=C(N=Nc1c(O)[nH]c2ccc(C)cc12)NC(C)=O | > 100 | > 100 | > 100 | > 100 | > 100 | > 100 | > 100 | > 100 | – | > 100 | – | – | – | – | – | – | – | – | – | –
12 | CCCCCC(CN1CCOCC1)C(=O)/C=C/c1ccccc1 (centres undefined) | – | 4.61 | 11.9 | 11.1 | – | 5.02 | 9.19 | – | 8.64 | 19.1 | – | – | – | – | – | – | – | – | – | –
13 | COc1cc(NS(C)(=O)=O)ccc1NCc1cnc2ccc3[nH]c(C)ccc3c12 | 68.8 | 44.7 | > 100 | > 100 | > 100 | > 100 | > 100 | 42 | 91.9 | > 100 | – | – | – | – | – | – | – | – | – | –
14 | O=C(Cn1c(=O)ccn(C2OC(CO)C(O)C2F)c1=O)c1ccc(F)cc1 (centres undefined) | > 100 | > 100 | > 100 | > 100 | > 100 | > 100 | > 100 | – | > 100 | > 100 | – | – | – | – | – | – | – | – | – | –
15 | O=c1[nH]c2ccc(C(F)(F)F)cc2nc1-c1ccccc1 | > 100 | > 100 | > 100 | > 100 | > 100 | > 100 | – | > 100 | > 100 | > 100 | – | – | – | – | – | – | – | – | – | –
16 | CNC(=S)/C(=N\Nc1nc[nH]c1C(N)=O)C(N)=S | > 94.4 | – | > 94.7 | > 100 | > 57.5 | > 54.2 | > 82.8 | > 75.6 | > 50.2 | > 100 | – | – | – | – | – | – | – | – | – | –
17 | O=c1c2ccccc2nc2n1NC(c1c(Cl)cccc1Cl)N2c1cccc(Cl)c1 (centres undefined) | 47.2 | > 100 | 56.7 | 19.1 | 12 | > 100 | 5.19 | – | 54.2 | > 100 | – | – | – | – | – | – | – | – | – | –
18 | O=c1c(O)c(-c2ccc(O)cc2O)oc2cc(O)cc(O)c12 | > 100 | – | > 100 | > 100 | > 100 | > 100 | > 100 | – | > 100 | > 100 | – | – | – | – | – | – | – | – | – | –
19 | NC(=O)NC(=O)c1cnccn1 | > 100 | > 100 | > 100 | > 100 | – | > 100 | > 100 | > 100 | > 100 | > 100 | – | – | – | – | – | – | – | – | – | –
20 | Cc1c(N2C(=O)/C(=C/C=C/c3ccccc3)N=C2c2ccccc2)c(=O)n(-c2ccccc2)n1C | > 100 | 78.8 | 61.1 | 51.7 | 77.6 | 68.9 | 33 | – | 46.6 | – | – | – | – | – | – | – | – | – | – | –
21 | Cc1cc2nc3n[nH]c(N)c3nc2cc1C | > 100 | > 100 | > 100 | > 100 | > 100 | > 100 | > 100 | > 100 | – | > 100 | – | – | – | – | – | – | – | – | – | –
22 | c1ccc(COc2ccc(CC3SCCCS3)cc2)cc1 | > 100 | > 100 | – | – | > 100 | > 100 | – | – | > 100 | > 100 | – | – | – | – | – | – | – | – | – | –
23 | CN(C)CCCNc1c(O)c2c(c(O)c1Cl)C(=O)C=CC2=O | > 10 | 5.04 | 3.22 | 3 | 9.69 | – | 3.46 | > 10 | 6.6 | 2.85 | – | – | – | – | – | – | – | – | – | –
